What all share (type): biochemical
For one test, the target named is T1, ITK (Homo sapiens, UniProt Q08881).
T1 sequence (Q08881 1-620): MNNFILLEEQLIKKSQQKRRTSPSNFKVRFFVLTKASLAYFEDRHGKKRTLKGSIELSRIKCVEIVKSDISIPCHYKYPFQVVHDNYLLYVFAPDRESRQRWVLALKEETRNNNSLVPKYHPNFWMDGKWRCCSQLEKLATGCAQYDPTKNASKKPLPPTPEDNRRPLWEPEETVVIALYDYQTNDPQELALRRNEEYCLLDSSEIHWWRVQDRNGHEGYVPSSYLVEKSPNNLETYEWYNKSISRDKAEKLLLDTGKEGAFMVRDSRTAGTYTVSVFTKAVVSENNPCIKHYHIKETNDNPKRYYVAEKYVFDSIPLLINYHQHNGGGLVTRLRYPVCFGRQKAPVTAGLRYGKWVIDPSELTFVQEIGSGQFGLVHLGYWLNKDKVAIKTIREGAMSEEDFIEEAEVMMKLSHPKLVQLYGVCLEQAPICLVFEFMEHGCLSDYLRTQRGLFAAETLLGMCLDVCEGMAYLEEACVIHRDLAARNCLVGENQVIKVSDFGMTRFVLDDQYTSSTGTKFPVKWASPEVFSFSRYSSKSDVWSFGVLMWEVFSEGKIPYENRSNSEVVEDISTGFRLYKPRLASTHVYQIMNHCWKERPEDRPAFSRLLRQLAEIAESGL
Kind of test: ITK IC50 kinase inhibition assay.

The next test has as its target BTK (Homo sapiens, UniProt Q06187). Kind of test: BTK IC50 kinase inhibition assay.
In another test the target is T2, JAK3 (Homo sapiens, UniProt P52333).
T2 sequence (P52333 1-1124): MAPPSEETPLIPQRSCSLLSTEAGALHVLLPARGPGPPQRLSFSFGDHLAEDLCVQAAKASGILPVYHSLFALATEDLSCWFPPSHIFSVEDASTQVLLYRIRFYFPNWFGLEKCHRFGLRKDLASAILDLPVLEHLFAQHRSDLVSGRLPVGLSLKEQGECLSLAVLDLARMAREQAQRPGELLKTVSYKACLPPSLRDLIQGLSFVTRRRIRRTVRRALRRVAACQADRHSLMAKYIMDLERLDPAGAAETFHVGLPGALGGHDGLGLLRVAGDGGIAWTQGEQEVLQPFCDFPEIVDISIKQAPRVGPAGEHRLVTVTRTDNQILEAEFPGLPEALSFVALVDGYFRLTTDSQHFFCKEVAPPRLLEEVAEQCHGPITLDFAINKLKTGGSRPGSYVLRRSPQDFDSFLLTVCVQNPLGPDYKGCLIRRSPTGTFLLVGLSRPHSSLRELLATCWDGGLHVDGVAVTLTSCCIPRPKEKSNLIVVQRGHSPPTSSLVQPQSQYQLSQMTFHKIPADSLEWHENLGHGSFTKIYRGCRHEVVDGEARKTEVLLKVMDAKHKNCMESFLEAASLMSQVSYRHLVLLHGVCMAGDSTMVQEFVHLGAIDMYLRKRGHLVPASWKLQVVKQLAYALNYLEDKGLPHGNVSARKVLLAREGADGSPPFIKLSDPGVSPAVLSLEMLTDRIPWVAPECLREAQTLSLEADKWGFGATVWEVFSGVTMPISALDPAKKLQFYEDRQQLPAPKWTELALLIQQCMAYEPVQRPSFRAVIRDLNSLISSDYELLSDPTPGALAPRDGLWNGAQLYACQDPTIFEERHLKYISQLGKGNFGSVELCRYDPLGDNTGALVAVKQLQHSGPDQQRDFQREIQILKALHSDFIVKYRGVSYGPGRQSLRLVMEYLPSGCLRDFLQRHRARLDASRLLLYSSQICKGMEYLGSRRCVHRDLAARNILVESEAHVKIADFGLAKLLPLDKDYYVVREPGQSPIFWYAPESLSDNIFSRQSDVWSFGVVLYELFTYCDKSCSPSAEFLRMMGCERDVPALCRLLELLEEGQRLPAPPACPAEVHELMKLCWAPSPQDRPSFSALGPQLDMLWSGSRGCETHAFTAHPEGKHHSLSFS
Kind of test: JAK3 IC50 kinase inhibition assay.

Another test addresses T3, RLK (Homo sapiens, UniProt P42681).
T3 sequence (P42681 1-527): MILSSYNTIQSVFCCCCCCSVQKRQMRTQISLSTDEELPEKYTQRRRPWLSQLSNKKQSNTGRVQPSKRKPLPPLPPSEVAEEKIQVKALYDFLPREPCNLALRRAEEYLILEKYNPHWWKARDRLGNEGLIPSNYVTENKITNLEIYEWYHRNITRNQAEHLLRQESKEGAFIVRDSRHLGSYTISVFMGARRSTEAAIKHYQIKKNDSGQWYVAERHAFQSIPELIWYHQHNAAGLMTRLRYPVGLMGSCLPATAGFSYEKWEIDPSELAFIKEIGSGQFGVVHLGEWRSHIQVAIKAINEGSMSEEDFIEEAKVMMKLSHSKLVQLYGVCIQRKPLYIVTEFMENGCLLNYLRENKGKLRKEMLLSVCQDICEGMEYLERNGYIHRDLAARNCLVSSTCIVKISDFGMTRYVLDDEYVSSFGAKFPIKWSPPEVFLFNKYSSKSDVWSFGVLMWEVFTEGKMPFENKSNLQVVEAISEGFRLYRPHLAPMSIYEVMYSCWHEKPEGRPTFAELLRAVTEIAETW
Kind of test: RLK IC50 kinase inhibition assay.

The next test concerns the target T4, TXK (Homo sapiens, UniProt P42681).
T4 sequence (P42681 1-527): T3 sequence (P42681 1-527)
Kind of test: TXK IC50 kinase inhibition assay.

Sequence of BTK (Q06187 whole entry): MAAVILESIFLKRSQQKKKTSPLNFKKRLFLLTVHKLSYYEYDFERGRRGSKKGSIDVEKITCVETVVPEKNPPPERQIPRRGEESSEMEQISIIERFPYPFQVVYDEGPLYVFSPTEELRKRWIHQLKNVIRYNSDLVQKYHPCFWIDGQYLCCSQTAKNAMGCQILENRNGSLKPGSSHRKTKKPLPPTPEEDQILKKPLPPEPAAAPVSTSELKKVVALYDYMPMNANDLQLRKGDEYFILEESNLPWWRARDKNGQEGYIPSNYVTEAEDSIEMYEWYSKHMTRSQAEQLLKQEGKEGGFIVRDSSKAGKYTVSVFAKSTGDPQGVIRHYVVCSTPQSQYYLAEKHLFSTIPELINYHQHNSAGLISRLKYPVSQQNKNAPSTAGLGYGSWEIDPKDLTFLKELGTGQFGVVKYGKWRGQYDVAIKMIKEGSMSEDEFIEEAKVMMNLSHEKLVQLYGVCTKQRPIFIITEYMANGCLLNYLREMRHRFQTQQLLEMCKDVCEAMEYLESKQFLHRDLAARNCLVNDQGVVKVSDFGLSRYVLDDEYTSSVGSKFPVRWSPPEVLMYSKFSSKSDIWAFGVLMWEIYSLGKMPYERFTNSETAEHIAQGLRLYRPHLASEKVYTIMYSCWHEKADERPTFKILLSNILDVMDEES

`C=CC(=O)N1CCC[C@@H](n2nc(-c3ccc(Oc4ccccc4)cc3)c3cnc(N)nc32)C1` [Compound A11]: the IC50 (usually the concentration at which inhibition is half-maximal) against ITK is > 500 nM; against BTK, < 100 nM; against JAK3, > 500 nM; on RLK it was 100 to 500 nM.
For `CN(C)CC#CC(=O)N1CC2(CC(n3nc(-c4ccc(Oc5ccccc5)cc4)c4cncnc43)C2)C1` [Compound A75, 4-(dimethylamino)-1-(6-(3-(4-phenoxyphenyl)-1H-pyrazolo[3,4-d]pyrimidin-1-yl)-2-azaspiro[3.3]heptan-2-yl)but-2-yn-1-one], the IC50 against ITK is 100 to 500 nM; against BTK, < 100 nM; on JAK3, 100 to 500 nM; against TXK, < 100 nM.
`CN1CCN(CC#CC(=O)N2CC3(CC(n4nc(-c5ccc(Oc6ccccc6)cc5)c5cncnc54)C3)C2)CC1` [Compound A76, 4-(4-Methylpiperazin-1-yl)-1-(6-(3-(4-phenoxyphenyl)-1H-pyrazolo[3,4-d]pyrimidin-1-yl)-2-azaspiro[3.3]heptan-2-yl)but-2-yn-1-one]: the IC50 at ITK is > 500 nM; against BTK, < 100 nM; against JAK3, > 500 nM; on TXK it was < 100 nM.
Take `O=C(C#CCN1CCCCC1)N1CC2(CC(n3nc(-c4ccc(Oc5ccccc5)cc4)c4cncnc43)C2)C1` [Compound A77, 1-(6-(3-(4-Phenoxyphenyl)-1H-pyrazolo[3,4-d]pyrimidin-1-yl)-2-azaspiro[3.3]heptan-2-yl)-4-(piperidin-1-yl)but-2-yn-1-one]: the IC50 against ITK was > 500 nM; at BTK, < 100 nM; against JAK3 it was > 500 nM; against TXK it was < 100 nM.
Turning to `O=C(C#CC1CC1)N1CC2(CC(n3nc(-c4ccc(Oc5ccccc5)cc4)c4cncnc43)C2)C1` [Compound A78, 3-Cyclopropyl-1-(6-(3-(4-phenoxyphenyl)-1H-pyrazolo[3,4-d]pyrimidin-1-yl)-2-azaspiro[3.3]heptan-2-yl)prop-2-yn-1-one], the IC50 on ITK is > 500 nM; on BTK it was 100 to 500 nM; at JAK3, > 500 nM; on TXK, > 500 nM.
Take `COCC#CC(=O)N1CC2(CC(n3nc(-c4ccc(Oc5ccccc5)cc4)c4cncnc43)C2)C1` [Compound A79, 4-Methoxy-1-(6-(3-(4-phenoxyphenyl)-1H-pyrazolo[3,4-d]pyrimidin-1-yl)-2-azaspiro[3.3]heptan-2-yl)but-2-yn-1-one]: the IC50 is > 500 nM on ITK, < 100 nM against BTK, > 500 nM on JAK3 and < 100 nM against TXK.

Source of the values: US10870652B2, “Compounds and methods for modulating bruton's tyrosine kinase” (CORVUS PHARMACEUTICALS, INC., priority 2016, dated 2020).
